Data taken from US20250388623A1, “PEPTIDE INHIBITOR AND USE THEREOF” (CHENGDU BRILLIANT INSPIRATION BIOTHERAPEUTICS CO., LTD, priority 2022, published 2025).
Bridge positions count the residues as written; N and C are the ends. Ends that are not written are not given here. Peptide text beside a SMILES is read from it.

Legend:
[1] = test system: active TGF-β; assay: Active TGF-β level in lung tissue, bleomycin (BLM) mouse lung fibrosis model; assay type: in vivo; details: single intratracheal dose 3 mg/kg on Day 7, lung 24 h later, BLM model group = 100.00
Source text: This Example was to evaluate the inhibitory effect of polypeptides on active TGF-β level during the progression of fibrotic disease. In this Example, a mouse lung fibrosis model induced by bleomycin (BLM) was used. The BLM animal model offers advantages, including a close mimicry of the pathological features of the primary disease, ease of use, and good reproducibility. It is the most representative model for studying the mechanisms of fibrosis and is recommended for evaluating drug efficacy.
In this Example, 6 to 8-week-old male C57/6J mice weighing 18-20 g were used as subjects for the study. The experimental animals were randomized into groups, 8 animals in each group, and the expressions of pro-fibrotic factors were detected at the endpoint of the experiment (Day 8) in this model. In this example, an aerosol intratracheal metered dosing applicator (Yuyan, model YAN30012) was utilized for intratracheal administration during the modeling and drug delivery processes. The dosing was performed as follows (An Official American Thoracic Society Workshop Report: Use of Animal Models for the Preclinical Assessment of Potential Therapies for Pulmonary Fibrosis, Am J Respir Cell Mol Biol Vol 56, Iss 5, pp 667-679, May 2017): The experimental animals were anesthetized with aerosolized isoflurane (RWD, lot no. 22041701) using a small animal anesthesia machine (RWD, model R500IE). Animals in the appropriate anesthetic state were positioned supine with heads facing up and bodies tilted on an operating platform (tilted at approximately) 60°, secured by their incisors. The practitioner gently lifted the tongue with tissue forceps in the right hand, pushing it outward and upward to open the animal's lower jaw. Holding the laryngoscope (Yuyan, model SR310-RW) in the left hand, the practitioner slid its anterior leaf-shaped blade along the midline of the tongue into the oral cavity until reaching the glottis, gently pressing the body and root of the tongue upward. The needle of the drug applicator was then inserted through the mouth into the glottis alongside the laryngoscope, and 50 μL of liquid was quickly injected. On the day of modeling (Day 1), the experimental animals were randomly assigned to groups and administered a 0.7 USP/kg dose of bleomycin solution (HanHui Pharmaceutical, Batch No. 20080511) via the tracheal route to induce the model. On Day 7, each peptide-treated group received a single intratracheal dose of 50 μL peptide drug (at a dosage of 3 mg/kg), while the model group was given an equal volume of solvent (saline, Kelong, Batch No. L221062501) as a control. Twenty-four hours after drug administration, the animals were dissected to collect lung tissue, which was ground in liquid nitrogen to extract total protein from the lung tissue. The active TGF-β content in the lung tissue of mice from each group was measured using the TGF-β ELISA kit (BOSTER, catalog number EK0515). The ratio of active TGF-β content between the peptide-treated group and the model group was calculated to evaluate the effect of the peptide on active TGF-β level.

[2] = test system: P-Smad2/3; assay: P-Smad2/3 content in lung tissue, BLM mouse fibrosis model; assay type: in vivo; details: single intratracheal dose 3 mg/kg on Day 7, lung 24 h later, BLM model group = 100.00
Source text: This example aimed to evaluate the inhibitory effect of polypeptides on the TGF-β downstream signaling pathway during fibrosis progression. TGF-β intracellular signaling relies on the phosphorylation events of Smad family proteins. The increase in Smad2/3 phosphorylation levels is an important indicator that signal transduction has occurred in the TGF-β signaling pathway.
In this example, 6- to 8-week-old male C57/6J mice weighing 18-20 g were used as subjects for the study. The experimental animals were randomized into groups, eight animals in each group. In this example, intratracheal administration was performed using an aerosol intratracheal metered dosing applicator during both the modeling and drug delivery processes, as described in Example 4. On the day of modeling (Day 1), the experimental animals were randomly assigned to groups and administered a 0.7 USP/kg dose of bleomycin solution (HanHui Pharmaceutical, Batch No. 20080511) via the tracheal route to induce the model. On Day 7, each peptide-treated group received a single intratracheal dose of peptide drug at a dosage of 3 mg/kg, while the BLM model group was given an equal volume of solvent (saline) as a control. Twenty-four hours after drug administration, the animals were dissected, and the lung tissues were collected and frozen in liquid nitrogen for future use. Total protein from the lung tissue was extracted after grinding the tissue in liquid nitrogen, and the total P-Smad2/3 content in the tissue was measured by using P-Smad2/3 ELISA kit (CST, Catalog No. 12001C). The ratio of the P-Smad2/3 content between the peptide-treated group and the model group was calculated to evaluate the effect of the peptide on TGFβ signaling.

[3] = test system: TSP-1-dependent TGF-β activation; assay: TSP-1-dependent TGF-β activation in PMA-differentiated THP-1 cells with 293-TGFβ Res reporter cells; assay type: cell-based; details: 100 μM polypeptide, 24 h; ratio to negative control group (1.00)
Protocol: In this Example, the inhibitory effects of the polypeptides on TSP-1-dependent TGF-β activation were detected using a model based on a high TSP-1 expressing cell. In the assay, THP-1 cells (American Typical Culture Collection, ATCC, TIB-20) were induced by phorbol ester (Phorbol 12-myristate 13-acetate, PMA) (Sigma, Catalog No. P1585) and differentiated into macrophage-like cells with distinct macrophage expression profiles.
The experiment was performed as follows: THP-1 cells were inoculated in a 96-well plate, and treated with 300 nM PMA for differentiation and adherence to form macrophage-like cells. 100 μM polypeptide was added (For the negative control group, an equal volume of PBS (the solvent for the polypeptide) was added, while the positive control group received an equal concentration of the polypeptide shown in SEQ ID NO: 50.) The cells were treated for 24 hours, and then a 293 reporter cell strain, 293-TGFβ Res cell strain (novoprotein, Catalog No. XCC03-1), was added for detecting TGF-β activity, and co-cultivated for 24 hours. Bio-Lite Luciferase Assay lysate comprising fluorescent substrate (Vazyme, Catalog No. DD1201-01) was added, and the fluorescent intensity was detected using a multifunctional microplate reader (TECAN, model Infinite 200 Pro). The inhibitory effect of the polypeptide on TGF-β activation was assessed by calculating the ratio of the fluorescence signal from the polypeptide-treated groups to that of the negative control group.

[4] = target: T1, binding of TSP-1 protein to CD36, a TSP-1 receptor protein (Homo sapiens, UniProt P07996); assay: ELISA: blocking of CD36 binding to TSP-1 protein; details: for inhibition at 100 µM: 3 h, read-out: Blocking rate (Mean, %); for inhibition at 100 µM / Blocking rate (Mean, %): 100 μM polypeptide, 0.25 μg/mL Fc-tagged CD36, blocking of CD36 binding to TSP-1
T1 construct: purchased novoprotein (TSP-1); R&D Systems (Fc-tagged CD36) CU45 (TSP-1); 1955-CD-050 (CD36-Fc)
T1 sequence (P07996 19-1170): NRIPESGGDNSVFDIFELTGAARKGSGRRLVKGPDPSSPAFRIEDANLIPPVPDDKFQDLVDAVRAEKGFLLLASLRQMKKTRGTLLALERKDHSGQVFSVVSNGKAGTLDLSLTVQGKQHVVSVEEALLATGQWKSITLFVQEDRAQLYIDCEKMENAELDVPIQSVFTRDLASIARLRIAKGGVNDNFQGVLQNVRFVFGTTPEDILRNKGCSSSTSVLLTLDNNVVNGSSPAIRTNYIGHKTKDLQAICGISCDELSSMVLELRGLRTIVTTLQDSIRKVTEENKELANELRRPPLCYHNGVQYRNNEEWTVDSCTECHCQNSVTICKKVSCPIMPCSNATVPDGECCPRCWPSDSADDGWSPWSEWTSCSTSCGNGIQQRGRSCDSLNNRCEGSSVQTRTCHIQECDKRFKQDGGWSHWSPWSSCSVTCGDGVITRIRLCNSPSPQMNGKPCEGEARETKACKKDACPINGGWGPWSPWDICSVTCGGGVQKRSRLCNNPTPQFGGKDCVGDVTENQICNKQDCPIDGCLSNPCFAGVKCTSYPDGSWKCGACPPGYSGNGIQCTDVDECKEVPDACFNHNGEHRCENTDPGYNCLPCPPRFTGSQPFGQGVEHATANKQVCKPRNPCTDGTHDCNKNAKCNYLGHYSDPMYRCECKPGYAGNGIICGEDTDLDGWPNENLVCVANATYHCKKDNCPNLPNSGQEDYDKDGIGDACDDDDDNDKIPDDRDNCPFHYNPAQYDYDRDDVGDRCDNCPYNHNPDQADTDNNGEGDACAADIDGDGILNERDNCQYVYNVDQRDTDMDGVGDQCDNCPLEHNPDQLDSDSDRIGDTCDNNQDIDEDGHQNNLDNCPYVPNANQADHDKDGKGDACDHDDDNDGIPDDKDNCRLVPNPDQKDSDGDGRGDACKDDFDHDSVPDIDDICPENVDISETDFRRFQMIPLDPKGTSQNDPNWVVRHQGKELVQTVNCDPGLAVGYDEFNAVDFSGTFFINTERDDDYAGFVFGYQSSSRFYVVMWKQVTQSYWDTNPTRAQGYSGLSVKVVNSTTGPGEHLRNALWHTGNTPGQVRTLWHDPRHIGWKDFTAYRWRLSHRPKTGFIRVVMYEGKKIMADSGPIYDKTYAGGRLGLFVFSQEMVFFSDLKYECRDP
Protocol: ELISA assay was performed to detect the ability of the polypeptides to block the binding of TSP-1 protein to CD36, a TSP-1 receptor protein. TSP-1 protein (novoprotein, Catalog No. CU45) was diluted to 2 μg/mL using 100 mM carbonate buffer and added to sample wells (100 μL/well) of a 96-well ELISA plate (Thermo, Catalog No. 437111), and incubated overnight at 4° C.; after washing the plate twice using 1×PBST wash solution, 200 μL of 1.5% BSA (Sigma, Catalog No. B2064) was added to each well, and incubated at 37° C. for 2 h; after washing the plate 3 times using 1×PBST wash solution, the analytes were added (100 μL/well, 3 replicate wells; for the control group, 0.25 μg/mL of Fc-tagged CD36 protein (R&D Systems, Catalog No. 1955-CD-050); and for the polypeptide-treated groups, a mixture containing Fc-tagged CD36 protein and polypeptide at final concentrations of 0.25 μg/mL and 100 μM, respectively), and incubated at 37° C. for 3 h. After washing the plate 5 times using 1×PBST wash solution, a 1:500 dilution solution of FITC-labeled anti-Fc-tagged antibody (Beyotime, Catalog No. A0556) was added, and incubated for 1 h at 37° C.; after washing the plate 5 times using 1×PBST wash solution, a multifunctional ELISA instrument (TECAN, model: Infinite 200 Pro) was used to detect the intensity of FITC fluorescence signal in each sample well. The ability of the polypeptides to block CD36 binding to TSP-1 protein (Table 2-1) was assessed by calculating the ratio of the fluorescence signal from the polypeptide-treated groups to that of the control group, allowing for the determination of the blocking rate of the polypeptides in inhibiting CD36 binding to TSP-1 protein, i.e., (fluorescence signal of the control group-fluorescence signal of the polypeptide-treated group)/fluorescence signal of the control group×100%. Based on the blocking rate results obtained at the single concentration and on the polypeptide molecule properties, the preferred polypeptide molecules were assayed for concentration dependence (at 0 μM, 0.5 μM, 1 μM, 5 μM, 10 μM, and 100 μM), and IC50 values of the polypeptides for blocking CD36 binding to TSP-1 protein were determined to further assess the abilities of the preferred polypeptide molecules to block the binding of CD36 to TSP-1 (Table 2-2).

inhibition at 100 µM [4] [%]	IC50 ([4]; concentrations 0-100 μM) [µM]	Blocking rate (Mean, %) [4] [%]	Compound	active TGF-β content in lung tissue, ratio to model group, Mean(%) ([1]; 3 mg/kg)	P-Smad2/3 content in lung tissue, ratio to model group, Mean(%) ([2]; 3 mg/kg)	Mean (relative fluorescence intensity) [3]	active TGF-β content in lung tissue, ratio to model group, Mean(%) [1] [%]	P-Smad2/3 content in lung tissue, ratio to model group, Mean(%) [2] [%]
–	–	–	C[C@@H]1NC(=O)[C@H](CC(=O)O)NC(=O)[C@H](CCC(N)=O)NC(=O)[C@H]([C@@H](C)O)NC(=O)[C@H](CC(N)=O)NC(=O)[C@H](CC(=O)O)NC(=O)[C@H](CCC(=O)O)NC1=O [SEQ ID NO: 45, cyclo[Gln-Asp-Ala-Glu-Asp-Asn-Thr]] (cyclo(AEDNTQD))	81.10	82.42	0.52	–	–
32.6	10.6	–	Ac-TQDAEDNTAS-NH2 [SEQ ID NO: 24, Ac-Thr-Gln-Asp-Ala-Glu-Asp-Asn-Thr-Ala-Ser-NH2]	–	–	0.57	76.35	89.89
23.1	–	–	Ac-TQDAEDNTVSFLQ-NH2 [SEQ ID NO: 36, Ac-Thr-Gln-Asp-Ala-Glu-Asp-Asn-Thr-Val-Ser-Phe-Leu-Gln-NH2]	–	–	0.83	77.42	79.00
27.9	–	–	Ac-TQDPEDN-NH2 [SEQ ID NO: 14, Ac-Thr-Gln-Asp-Pro-Glu-Asp-Asn-NH2]	–	–	0.70	92.49	87.39
–	–	18.39	Ac-Thr-Gln-Asp-Ala-Glu-Asp-Leu-NH2 (Ac-TQDAEDL-NH2) [SEQ ID NO: 12]	–	–	–	81.77	90.48
–	–	19.10	Ac-Thr-Gln-Asp-Pro-Ala-Glu-Asp-NH2 (Ac-TQDPAED-NH2) [SEQ ID NO: 47]	–	–	–	83.78	93.25
–	–	15.87	Ac-Thr-Glu-Asp-Ala-Glu-Asp-Asn-NH2 (Ac-TEDAEDN-NH2) [SEQ ID NO: 09]	–	–	–	72.26	89.41
–	–	25.68	Thr-Gln-cyclo[Asp-Ala-Glu-Asp-Asn-Lys] (TQDAEDNK; lactam 3-8) [SEQ ID NO: 42]	–	–	–	80.59	85.16
–	–	28.65	cyclo[Thr-Gln-Asp-Pro-Glu-Asp-Asn] (TQDPEDN; cyclic peptide; MISC_FEATURE - head-to-tail backbone cyclization) [SEQ ID NO: 41]	–	–	–	74.12	81.44
